Reference: patent US12570610B2, “Macromolecule-supported aminobenzazepine compounds” (Bolt Biotherapeutics, Inc., priority 2019, dated 2026)

How the values were obtained:
human TLR7 = target: T1, human TLR7 (Homo sapiens, UniProt Q9NYK1); experiment: HEK293 NFKB reporter cells expressing human TLR7 (HEK Reporter Assay); format: cell-based; conditions: read-out: HEK293 hTLR7 EC50
T1 construct: host or cells: HEK293 reporter cells
T1 sequence (Q9NYK1 27-1049): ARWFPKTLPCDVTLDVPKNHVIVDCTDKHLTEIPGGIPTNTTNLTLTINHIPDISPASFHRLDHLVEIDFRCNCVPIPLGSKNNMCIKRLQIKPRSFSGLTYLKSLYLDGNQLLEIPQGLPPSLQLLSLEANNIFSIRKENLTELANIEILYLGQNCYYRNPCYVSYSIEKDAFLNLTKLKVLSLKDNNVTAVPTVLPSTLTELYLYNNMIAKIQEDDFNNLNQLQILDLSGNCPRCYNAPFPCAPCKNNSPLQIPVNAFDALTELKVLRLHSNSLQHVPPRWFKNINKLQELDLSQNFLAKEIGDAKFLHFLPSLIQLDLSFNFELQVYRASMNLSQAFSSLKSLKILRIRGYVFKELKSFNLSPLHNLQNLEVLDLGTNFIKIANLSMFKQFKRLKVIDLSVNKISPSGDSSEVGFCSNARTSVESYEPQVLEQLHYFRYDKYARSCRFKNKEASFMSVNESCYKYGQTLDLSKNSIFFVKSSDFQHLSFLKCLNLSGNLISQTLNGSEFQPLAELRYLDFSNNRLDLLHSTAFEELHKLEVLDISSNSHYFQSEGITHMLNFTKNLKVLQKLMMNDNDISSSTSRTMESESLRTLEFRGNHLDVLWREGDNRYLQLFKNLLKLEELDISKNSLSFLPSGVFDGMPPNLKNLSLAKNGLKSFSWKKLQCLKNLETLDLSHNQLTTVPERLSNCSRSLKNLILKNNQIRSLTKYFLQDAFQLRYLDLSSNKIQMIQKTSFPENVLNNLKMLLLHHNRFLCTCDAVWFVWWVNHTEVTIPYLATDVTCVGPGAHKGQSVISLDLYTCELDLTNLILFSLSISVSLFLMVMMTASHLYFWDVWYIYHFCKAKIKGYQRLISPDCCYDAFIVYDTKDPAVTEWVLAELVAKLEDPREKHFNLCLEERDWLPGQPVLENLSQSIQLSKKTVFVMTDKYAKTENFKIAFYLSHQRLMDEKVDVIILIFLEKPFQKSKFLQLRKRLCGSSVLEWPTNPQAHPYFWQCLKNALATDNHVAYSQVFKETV
Method: (§1) Each compound was synthesized and purified by the methods in the Examples provided herein, characterized by mass spectrometry, and shown to have the mass indicated. Activity against HEK293 NFKB reporter cells expressing human TLR7 or human TLR8 was measured according to method described in Example 67.
(§2) Example 67: HEK Reporter Assay
(§3) HEK293 reporter cells expressing human TLR7 or human TLR8 were purchased from Invivogen and vendor protocols were followed for cellular propagation and experimentation. Briefly, cells were grown to 80-85% confluence at 5% CO2 in DMEM supplemented with 10% FBS, Zeocin, and Blasticidin. Cells were then seeded in 96-well flat plates at 4×10^4 cells/well with substrate containing HEK detection medium and immunostimulatory molecules. Activity was measured using a plate reader at 620-655 nm wavelength.

human TLR8 = target: T2, human TLR8 (Homo sapiens, UniProt Q9NR97); experiment: HEK293 NFKB reporter cells expressing human TLR8 (HEK Reporter Assay); format: cell-based; conditions: read-out: HEK293 hTLR8 EC50
T2 construct: host or cells: HEK293 reporter cells
T2 sequence (Q9NR97 27-1041): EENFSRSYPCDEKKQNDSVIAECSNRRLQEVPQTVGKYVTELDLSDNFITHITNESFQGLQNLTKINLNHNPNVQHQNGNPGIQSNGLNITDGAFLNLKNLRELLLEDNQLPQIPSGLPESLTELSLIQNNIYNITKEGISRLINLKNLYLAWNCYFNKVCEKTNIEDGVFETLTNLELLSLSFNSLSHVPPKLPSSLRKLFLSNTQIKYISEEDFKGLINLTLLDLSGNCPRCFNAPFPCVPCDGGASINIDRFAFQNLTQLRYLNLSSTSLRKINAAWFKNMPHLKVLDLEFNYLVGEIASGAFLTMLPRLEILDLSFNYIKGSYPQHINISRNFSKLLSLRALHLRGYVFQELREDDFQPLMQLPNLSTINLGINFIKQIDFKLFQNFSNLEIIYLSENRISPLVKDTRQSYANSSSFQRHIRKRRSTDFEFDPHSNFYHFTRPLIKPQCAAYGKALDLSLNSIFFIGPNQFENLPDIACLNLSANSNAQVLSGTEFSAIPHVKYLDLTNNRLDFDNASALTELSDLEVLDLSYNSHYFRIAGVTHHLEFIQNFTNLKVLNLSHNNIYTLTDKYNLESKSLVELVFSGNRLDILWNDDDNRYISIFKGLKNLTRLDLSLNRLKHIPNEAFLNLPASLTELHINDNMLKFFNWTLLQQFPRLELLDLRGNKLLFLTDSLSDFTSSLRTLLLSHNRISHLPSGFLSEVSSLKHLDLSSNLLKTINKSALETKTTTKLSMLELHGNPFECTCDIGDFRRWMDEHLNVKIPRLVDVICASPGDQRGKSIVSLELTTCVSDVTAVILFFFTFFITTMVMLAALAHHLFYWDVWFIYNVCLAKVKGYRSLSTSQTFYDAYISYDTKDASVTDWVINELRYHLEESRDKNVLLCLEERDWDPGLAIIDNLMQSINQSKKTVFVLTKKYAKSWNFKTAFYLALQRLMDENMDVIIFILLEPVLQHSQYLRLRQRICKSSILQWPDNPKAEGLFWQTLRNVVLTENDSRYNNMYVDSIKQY
Method: as §1, §2, §3

CCCN(CCOC)C(=O)C1=Cc2ccc(-c3cccc(S(=O)(=O)N4CC(CO)C4)c3)cc2N=C(N)C1 [Bz-60]
EC50 (human TLR7): > 9 µM

CCCN(NCC)C(=O)C1=Cc2ccc(-c3cccc(S(=O)(=O)N4CC(CO)C4)c3)cc2N=C(N)C1 [Bz-71]
EC50 (human TLR7): > 9 µM

CCCN(CCC)C(=O)C1=Cc2ccc(C(=O)COC)cc2N=C(N)C1 [Bz-65]
EC50 (human TLR7): 3.93 µM | EC50 (human TLR8): 5.9 µM

CCCN(Cc1ccc(CN2CCN(C(=O)OC(C)(C)C)CC2)cc1)C(=O)C1=Cc2ccc(-c3cccc(S(=O)(=O)N4CC(CO)C4)c3)cc2N=C(N)C1 [Bz-44]
EC50 (human TLR8): 1.02 µM

CCCN(Cc1ccc(CN)cc1)C(=O)C1=Cc2ccccc2N=C(N)C1 [Bz-59]
EC50 (human TLR7): > 9 µM

CCN(CC)C(=O)C1=Cc2ccc(-c3cccc(S(=O)(=O)N4CC(CO)C4)c3)cc2N=C(N)C1 [Bz-50]
EC50 (human TLR8): > 9 µM

CCCN(CCC)C(=O)C1=Cc2ccc(-c3cccc(S(=O)(=O)NC(=O)c4ccccc4)c3)cc2N=C(N)C1 [Bz-37]
EC50 (human TLR7): > 9 µM | EC50 (human TLR8): > 9 µM

CCCN(CCC)C(=O)C1=Cc2ccc(-c3cccc(S(=O)(=O)Nc4nccs4)c3)cc2N=C(N)C1 [Bz-35]
EC50 (human TLR7): > 9 µM | EC50 (human TLR8): > 9 µM

CCCN(CCC(F)(F)F)C(=O)C1=Cc2ccc(C(=O)Nc3ccccc3)cc2N=C(N)C1 [Bz-75]
EC50 (human TLR7): > 9 µM

CCCN(Cc1ccc(CN(C)C)cc1)C(=O)C1=Cc2ccc(-c3cccc(S(=O)(=O)N4CC(CN)C4)c3)cc2N=C(N)C1 [Bz-62]
EC50 (human TLR7): > 9 µM | EC50 (human TLR8): > 9 µM

CCCN(CCc1ccc(OC)cc1)C(=O)C1=Cc2ccc(-c3cccc(S(=O)(=O)N4CC(CN)C4)c3)cc2N=C(N)C1 [Bz-61]
EC50 (human TLR7): > 9 µM | EC50 (human TLR8): 5.85 µM

CCCN(CCC)C(=O)C1=Cc2ccc(-c3cc(C(F)(F)F)cc(S(=O)(=O)N4CC(CN(C)C)C4)c3)cc2N=C(N)C1 [Bz-40]
EC50 (human TLR7): 0.332 µM | EC50 (human TLR8): > 9 µM

CCCNC(=O)C1=Cc2ccc(-c3cccc(S(=O)(=O)N4CC(CO)C4)c3)cc2N=C(N)C1 [Bz-58]
EC50 (human TLR7): > 9 µM | EC50 (human TLR8): > 9 µM

CCCN(CCC)C(=O)C1=Cc2ccc(-c3c(C)n[nH]c3C)cc2N=C(N)C1 [Bz-45]
EC50 (human TLR7): > 9 µM

CCCN(CCc1c[nH]cn1)C(=O)C1=Cc2ccc(-c3cccc(S(=O)(=O)N4CC(CO)C4)c3)cc2N=C(N)C1 [Bz-41]
EC50 (human TLR7): > 9 µM | EC50 (human TLR8): > 9 µM

CCCN(CCC)C(=O)C1=Cc2ccc(CCCCCN)cc2N=C(N)C1 [Bz-74]
EC50 (human TLR7): > 9 µM
